This is an account of results in US20130216498A1, “IMIDAZOPYRIDINE DERIVATIVES AS JAK INHIBITORS” (priority 2009, published 2013).

Holding throughout (assay type): biochemical
In test [1] the target is T1, human JAK1 (aa 850-1154) catalytic domain (Homo sapiens, UniProt P23458).
T1 construct: human JAK1 (aa 850-1154); GST (N); purchased Carna Biosciences; host or cells: baculovirus expression system
Put plainly: In vitro JAK kinase assay (TR-FRET), JAK1. As to conditions: GST-fusion catalytic domain; ATP 3 μM; poly (GT)-Biotin 60 nM; 30 minutes at room temperature. The procedure:
(§1) Compounds were screened for their ability to inhibit JAK1, JAK2 and JAK3 using the assays as indicated below.
(§2) The catalytic domains of human JAK1 (aa 850-1154), JAK2 (aa 826-1132), JAK3 (aa 795-1124) and Tyk2 (aa 871-1187) were expressed as N-terminal GST-fusion proteins using a baculovirus expression system and were purchased from Carna Biosciences. The enzymatic activity was assayed using as substrate a biotinylated peptide, poly (GT)-Biotin (CisBio). The peptide concentration in the reactions was 60 nM for JAK1, 20 nM for JAK2, 140 nM for JAK3 and 50 nM for Tyk2. The degree of phosphorylation was detected by TR-FRET (time-resolved fluorescence energy transfer).
(§3) IC50s of compounds were measured for each kinase in a reaction mixture containing the enzyme, ATP and the peptide in 8 mM MOPS (pH 7.0), 10 mM MgCl2, 0.05% β-mercaptoethanol, 0.45 mg/mL BSA. The ATP concentration in the reactions was 3 μM for JAK1, 0.2 μM for JAK2, 0.6 μM for JAK3 and 1.8 μM for Tyk2. The enzymatic reactions took place for 30 minutes at room temperature. Then, the reactions were stopped with 20 μL of quench detection buffer (50 mM HEPES, 0.5 M KF, EDTA 0.25 M, 0.1% (w/v) BSA, pH 7.5) containing 0.115 μg/mL of anti-phosphoTyr (PT66)-Cryptate (CisBio) and a variable concentration of SA-XL665 (CisBio) to keep the SA-B ratio constant. Incubate for 3 h and read on Victor 2V spectrofluorometer (PerkinElmer) set to read fluorescence resonance energy transfer.

The target of test [2] is T2, human JAK3 (aa 795-1124) catalytic domain (Homo sapiens, UniProt P52333).
T2 construct: JAK3 (aa 795-1124); GST (N); purchased Carna Biosciences; host or cells: baculovirus expression system
Put plainly: In vitro JAK kinase assay (TR-FRET), JAK3. The note with it: GST-fusion catalytic domain; ATP 0.6 μM; poly (GT)-Biotin 140 nM; 30 minutes at room temperature. Here is the method:
as §1, §2, §3

Test [3] has as its target T3, human JAK2 (aa 826-1132) catalytic domain (Homo sapiens, UniProt O60674).
T3 construct: JAK2 (aa 826-1132); GST (N); purchased Carna Biosciences; host or cells: baculovirus expression system
Put plainly: In vitro JAK kinase assay (TR-FRET), JAK2. The note with it: GST-fusion catalytic domain; ATP 0.2 μM; poly (GT)-Biotin 20 nM; 30 minutes at room temperature. Here is the method: as §1, §2, §3
(Time-resolved FRET reads energy transfer from a long-lived donor to a nearby acceptor.)

T3 sequence (O60674 826-1132): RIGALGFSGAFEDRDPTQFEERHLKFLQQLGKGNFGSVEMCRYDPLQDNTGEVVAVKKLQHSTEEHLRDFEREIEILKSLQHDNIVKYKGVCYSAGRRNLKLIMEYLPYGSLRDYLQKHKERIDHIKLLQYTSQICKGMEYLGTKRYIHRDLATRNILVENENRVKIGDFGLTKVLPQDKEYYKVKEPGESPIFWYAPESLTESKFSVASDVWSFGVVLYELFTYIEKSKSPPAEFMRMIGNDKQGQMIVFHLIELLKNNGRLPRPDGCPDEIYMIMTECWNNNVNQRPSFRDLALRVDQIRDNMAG
T2 sequence (P52333 795-1124): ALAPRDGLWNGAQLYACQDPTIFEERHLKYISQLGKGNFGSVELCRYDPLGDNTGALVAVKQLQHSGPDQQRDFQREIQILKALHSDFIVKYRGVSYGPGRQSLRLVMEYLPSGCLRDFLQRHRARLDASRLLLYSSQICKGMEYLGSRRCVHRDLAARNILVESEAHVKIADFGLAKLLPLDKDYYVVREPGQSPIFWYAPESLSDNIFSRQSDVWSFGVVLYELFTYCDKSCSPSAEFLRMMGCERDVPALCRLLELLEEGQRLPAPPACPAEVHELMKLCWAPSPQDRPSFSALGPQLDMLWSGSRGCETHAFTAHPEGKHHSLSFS
T1 sequence (P23458 850-1154): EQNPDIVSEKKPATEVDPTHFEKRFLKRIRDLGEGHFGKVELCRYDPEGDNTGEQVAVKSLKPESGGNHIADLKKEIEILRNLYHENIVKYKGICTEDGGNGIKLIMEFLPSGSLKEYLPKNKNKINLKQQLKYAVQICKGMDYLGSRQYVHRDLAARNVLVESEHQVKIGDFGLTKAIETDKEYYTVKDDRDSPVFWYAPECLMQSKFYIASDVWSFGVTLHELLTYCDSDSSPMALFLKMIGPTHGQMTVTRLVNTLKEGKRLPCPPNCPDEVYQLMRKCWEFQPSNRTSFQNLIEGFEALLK

By IC50 is commonly meant the midpoint of a concentration-inhibition curve. A high value points to weaker potency. In the case of `C[C@@H](c1ccc(F)cn1)N(C)c1nc(-c2cnc3ccc(F)cn23)ncc1C(=O)O` [Example 145, (S)-2-(6-Fluoroimidazo[1,2-a]pyridin-3-yl)-4-((1-(5-fluoropyridin-2-yl)ethyl)(methyl)amino)pyrimidine-5-carboxylic acid], the results for the IC50 in test [1], in test [2] and in test [3] were 100 to 1000 nM, 100 to 1000 nM and below 100 nM, respectively.

For the compound `CCN(CC)C(=O)[C@H]1CCCN1c1ccnc(-c2cnc3ccc(F)cn23)n1` [Example 92, (R)—N,N-Diethyl-1-(2-(6-fluoroimidazo[1,2-a]pyridin-3-yl)pyrimidin-4-yl)pyrrolidine-2-carboxamide], the IC50 in test [1] is 100 to 1000 nM; in test [2] it was above 1000 nM; in test [3], below 100 nM.

With `N#Cc1cnc(N2CCC[C@@H](Nc3ccnc(-c4cnc5ccc(F)cn45)n3)C2)s1` [Example 131, (R)-2-(3-(2-(6-Fluoroimidazo[1,2-a]pyridin-3-yl)pyrimidin-4-ylamino)piperidin-1-yl)thiazole-5-carbonitrile], the IC50 in test [1], in test [2] and in test [3] was below 100 nM in each case.

For the compound `CN(CC#N)C(=O)N1CCC[C@@H](Nc2ccnc(-c3cnc4ccc(F)cn34)n2)C1` [Example 68, (3R)—N-(Cyanomethyl)-3-{[2-(6-fluoroimidazo[1,2-a]pyridin-3-yl)pyrimidin-4-yl]amino}-N-methylpiperidine-1-carboxamide], the values for the IC50 in test [1], in test [2] and in test [3] were 100 to 1000 nM, below 100 nM and below 100 nM, respectively.

Consider `COCCNc1ccnc(-c2cnc3ccc(C#N)cn23)n1` [Example 6, 3-{4[(2-Methoxyethyl)amino]pyrimidin-2-yl}imidazo[1,2-a]pyridine-6-carbonitrile], for which the IC50 was above 1000 nM in test [1], 100 to 1000 nM in test [2] and 100 to 1000 nM in test [3].

Consider `CS(=O)(=O)c1cnc(-c2cnc3ccc(F)cn23)nc1N[C@@H]1CCCN(C(=O)CC#N)C1` [Example 159, (R)-3-(3-(2-(6-Fluoroimidazo[1,2-a]pyridin-3-yl)-5-(methylsulfonyl)pyrimidin-4-ylamino)piperidin-1-yl)-3-oxopropanenitrile], for which the IC50 in test [1] was above 1000 nM; in test [2], 100 to 1000 nM; in test [3] it was below 100 nM.

On to `CCCN1CC[C@@H](Nc2ccnc(-c3cnc4ccc(F)cn34)n2)C1=O` [Example 89, (R)-3-(2-(6-Fluoroimidazo[1,2-a]pyridin-3-yl)pyrimidin-4-ylamino)-1-propyl pyrrolidin-2-one], for which the figures for the IC50 in test [1], in test [2] and in test [3] were above 1000 nM, above 1000 nM and 100 to 1000 nM, respectively.

On to `O=C(Cc1ccc(CO)cc1)N1CCC[C@@H](Nc2ccnc(-c3cnc4ccc(F)cn34)n2)C1` [Example 107, (R)-1-(3-(2-(6-Fluoroimidazo[1,2-a]pyridin-3-yl)pyrimidin-4-ylamino)piperidin-1-yl)-2-(4-(hydroxymethyl)phenyl)ethanone], for which the values for the IC50 in test [1], in test [2] and in test [3] were above 1000 nM, above 1000 nM and below 100 nM, respectively.

For the compound `Nc1cnc(-c2cnc3ccc(F)cn23)nc1NC1CCCc2ncccc21` (stereo not drawn) [Example 137, 2-(6-Fluoroimidazo[1,2-a]pyridin-3-yl)-N^4-(5,6,7,8-tetrahydroquinolin-5-yl)pyrimidine-4,5-diamine], the IC50 in test [1] is above 1000 nM; in test [2] it was 100 to 1000 nM; in test [3], below 100 nM.

For `O=C(c1cn[nH]c1)N1CCC[C@@H](Nc2ccnc(-c3cnc4ccc(F)cn34)n2)C1` [Example 67, 2-(6-Fluoroimidazo[1,2-a]pyridin-3-yl)-N-[(3R)-1-(1H-pyrazol-4ylcarbonyl)piperidin-3-yl]pyrimidin-4-amine], the IC50 in test [1] was 100 to 1000 nM; in test [2], 100 to 1000 nM; in test [3] it was below 100 nM.

Take `N#CCC(=O)N1CCCN(c2ccnc(-c3cnc4ccc(C#N)cn34)n2)CC1` [Example 82, 3-{4-[4-(Cyanoacetyl)-1,4-diazepan-1-yl]pyrimidin-2-yl}imidazo[1,2-a]pyridine-6-carbonitrile]: the 50% inhibitory concentration (IC50) was above 1000 nM in test [1], above 1000 nM in test [2] and 100 to 1000 nM in test [3].

With `N#CCC(=O)N1CCC[C@@H](Nc2cc(-n3cncn3)nc(-c3cnc4ccc(F)cn34)n2)C1` [Example 164, (R)-3-(3-(2-(6-Fluoroimidazo[1,2-a]pyridin-3-yl)-6-(M−1,2,4-triazol-1-yl)pyrimidin-4-ylamino)piperidin-1-yl)-3-oxopropanenitrile], the IC50 in test [1] is 100 to 1000 nM; in test [2], below 100 nM; in test [3], below 100 nM.

As for `Nc1cnc(-c2cnc3ccc(F)cn23)nc1NCc1ccc(F)cn1` [Example 136], the IC50 in test [1], in test [2] and in test [3] was below 100 nM each time.

Take `O=C(CC(F)(F)F)N1CCC[C@@H](N(CC2CC2)c2ccnc(-c3cnc4ccc(F)cn34)n2)C1` [Example 76, N-(Cyclopropylmethyl)-2-(6-fluoroimidazo[1,2-a]pyridin-3-yl)-N-[(3R)-1-(3,3,3-trifluoropropanoyl)piperidin-3-yl]pyrimidin-4-amine]: the IC50 in test [1] is above 1000 nM; in test [2] it was 100 to 1000 nM; in test [3], below 100 nM.

As for `N#Cc1ccc2ncc(-c3nccc(N[C@H]4CC[C@H](O)CC4)n3)n2c1` [Example 22, 3-{4-[(Trans-4-hydroxycyclohexyl)amino]pyrimidin-2-yl}imidazo[1,2-a]pyridine-6-carbonitrile], the IC50 in test [1] was above 1000 nM; in test [2], below 100 nM; in test [3], below 100 nM.

Consider `O=C([C@H](O)CO)N1CCC[C@@H](Nc2nc(-c3cnc4ccc(F)cn34)nc(N3CCOCC3)c2F)C1` [Example 185, (R)-1-((R)-3-(5-Fluoro-2-(6-fluoroimidazo[1,2-a]pyridin-3-yl)-6-morpholinopyrimidin-4-ylamino)piperidin-1-yl)-2,3-dihydroxypropan-1-one], for which the results for the IC50 in test [1], in test [2] and in test [3] were 100 to 1000 nM, 100 to 1000 nM and below 100 nM, respectively.

Turning to `N#CCC(=O)N1CCC[C@@H](Nc2cc(N)nc(-c3cnc4ccc(F)cn34)n2)C1` [Example 183, (R)-3-(3-(6-Amino-2-(6-fluoroimidazo[1,2-a]pyridin-3-yl)pyrimidin-4-ylamino)piperidin-1-yl)-3-oxopropanenitrile], the IC50 in test [1], in test [2] and in test [3] was below 100 nM throughout.

Turning to `CC(C)(C)CNc1ccnc(-c2cnc3ccccn23)n1` [Example 31, N-(2,2-Dimethylpropyl)-2-imidazo[1,2-a]pyridin-3-ylpyrimidin-4-amine], the concentration for half-maximal inhibition (IC50) was 100 to 1000 nM in test [1], 100 to 1000 nM in test [2] and below 100 nM in test [3].

Regarding `CC(C)S(=O)(=O)N1CCC[C@@H](Nc2ccnc(-c3cnc4ccc(C#N)cn34)n2)C1` [Example 45, 3-(4-{[(3R)-1-(Isopropylsulfonyl)piperidin-3-yl]amino}pyrimidin-2-yl)imidazo[1,2-a]pyridine-6-carbonitrile], the values for the IC50 in test [1], in test [2] and in test [3] were above 1000 nM, 100 to 1000 nM and 100 to 1000 nM, respectively.

On to `Fc1ccc2ncc(-c3nccc(N4CCCC4c4ccccn4)n3)n2c1` (stereo not drawn) [Example 90, 6-Fluoro-3-(4-(2-(pyridin-2-yl)pyrrolidin-1-yl)pyrimidin-2-yl)imidazo[1,2-a]pyridine], for which the results for the IC50 in test [1], in test [2] and in test [3] were above 1000 nM, below 100 nM and below 100 nM, respectively.

In the case of `C[C@H](Nc1ccnc(-c2cnc3ccc(C#N)cn23)n1)c1ccccc1` [Example 1, 3-(4-{[(1S)-1-Phenylethyl]amino}pyrimidin-2-yl)imidazo[1,2-a]pyridine-6-carbonitrile], the IC50 in test [1] was 100 to 1000 nM; in test [2], below 100 nM; in test [3], below 100 nM.

For the compound `CC(C)(C)CNc1nc(-c2cnc3ccc(C#N)cn23)ncc1-c1cccnc1` [Example 13, 3-{4-[(2,2-Dimethylpropyl)amino]-5-pyridin-3-ylpyrimidin-2-yl}imidazo[1,2-a]pyridine-6-carbonitrile], the IC50 in test [1] is above 1000 nM; in test [2], 100 to 1000 nM; in test [3], 100 to 1000 nM.

Regarding `N#CCC(=O)N1CCC[C@@H](Nc2cc(N3CCNCC3)nc(-c3cnc4ccc(F)cn34)n2)C1` [Example 166, (R)-3-(3-(2-(6-Fluoroimidazo[1,2-a]pyridin-3-yl)-6-(piperazin-1-yl)pyrimidin-4-ylamino)piperidin-1-yl)-3-oxopropanenitrile], the values for the IC50 in test [1], in test [2] and in test [3] were 100 to 1000 nM, below 100 nM and below 100 nM, respectively.
